Source: paper PMC6145916, “Interaction of mitochondrial fission factor with dynamin related protein 1 governs physiological mitochondrial function in vivo” (Scientific Reports, 2018)
Where no end group is shown, it is not given here.

Tested on: Mff-Drp1 interaction
Test: Co-immunoprecipitation of recombinant Drp1 with Mff
Assay type: binding, human
Conditions: 1 µM P259, 2 hours at 4 °C, 200 ng Drp1, 200 ng adaptor, RIPA buffer; representative blot of two independent experiments
Source text: Figure 1 Rational peptide design identifies a novel inhibitor of the Mff-Drp1 protein-protein interaction. (a) A scheme of the rationale behind the inhibitor design. […] Surface and ribbon diagrams of Drp1 structure (PDB, 4BEJ) with the GTPase, bundle signaling element (BSE), and stalk domains highlighted. (d) A heatmap representing sequence conservation of human proteins that contain a region similar to P259. Sequence conservation corresponds to the number of residues similar/identical to P259 from each sequence. […] The obtained graph is of the mean standardized response and ± s.e. as a function of time for n = 3 individual experiments, with 3 technical replicates each. […]
Protein binding to the surface was obtained through current measurements during a voltage sweep by a potentiostat. […] After calibration with 30 µL RIPA buffer for 3 minutes, […] of 100 nM protein was incubated over the surface for 3 minutes as sensor response w as measured. Disso ciation was measured by re-applying 30 µL of RIPA buffer. […]
The standardized response value was calculated by the following equation: […]
KD values were subsequently calculated using the binding and dissociation curves and the analysis software provided by the manufacturer (Nanomedical Diagnostics). […]
Protein content was measured using Bradford protein assay dye (Bio-Rad, CA, USA) and subsequently standardized. […]

Substance: YGRKKRRQRRRGSGIIQLPEIVVV-NH2 (C-terminus assumed) [P259]
- Mff binding to co-immunoprecipitated recombinant Drp1: abolished Mff binding
